Read-outs that look alike come from different tables or passages of the source.
Biological target: T1, Protein phosphatase 5 (EcPP5, rEcPP5) (Epicauta chinensis, UniProt W0FW71)
T1 construct: recombinant full ORF (499 aa), N-terminal His6 tag, E. coli expressed
T1 sequence (W0FW71 1-499): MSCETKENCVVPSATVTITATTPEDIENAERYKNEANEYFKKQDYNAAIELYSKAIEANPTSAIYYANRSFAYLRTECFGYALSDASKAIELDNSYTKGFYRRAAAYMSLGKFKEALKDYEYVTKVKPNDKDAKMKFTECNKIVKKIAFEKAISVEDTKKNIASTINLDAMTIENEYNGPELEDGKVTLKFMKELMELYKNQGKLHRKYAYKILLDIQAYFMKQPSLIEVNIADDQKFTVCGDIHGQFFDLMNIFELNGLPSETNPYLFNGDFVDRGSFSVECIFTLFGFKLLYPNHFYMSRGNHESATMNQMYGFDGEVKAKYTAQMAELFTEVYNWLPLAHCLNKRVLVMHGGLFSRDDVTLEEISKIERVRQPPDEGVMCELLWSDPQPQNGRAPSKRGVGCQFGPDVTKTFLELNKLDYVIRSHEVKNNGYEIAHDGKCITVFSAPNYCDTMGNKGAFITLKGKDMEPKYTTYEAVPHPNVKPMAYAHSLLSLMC
Assay: pNPP phosphatase assay, dose-response, purified enzyme
Format: biochemical

C[C@@]12C(=O)OC(=O)[C@]1(C)[C@H]1CC[C@@H]2O1 [cantharidin]
IC50: 3.19 µM

O=C1OC(=O)[C@H]2[C@@H]1[C@@H]1CC[C@H]2O1 [norcantharidin]
IC50 (read-out: IC50): 25.7 µM

O=C(O)[C@@H]1[C@H](C(=O)O)[C@H]2CC[C@@H]1O2 [endothall]
IC50: 28.4 µM

C=C1[C@@H](O)[C@@H]2O[C@]3(CC[C@H](/C=C/[C@@H](C)[C@@H]4CC(C)=C[C@@]5(O[C@H](C[C@@](C)(O)C(=O)O)CC[C@H]5O)O4)O3)CC[C@H]2O[C@@H]1[C@@H](O)C[C@H](C)[C@H]1O[C@@]2(CCCCO2)CC[C@H]1C [okadaic acid]
IC50: 0.19 µM

— publication PMC3876124, “Identification and Biochemical Characterization of Protein Phosphatase 5 from the Cantharidin-Producing Blister Beetle, Epicauta chinensis” (International Journal of Molecular Sciences, 2013)
